Measured values published in patent US20120156216A1, “Methods and Compositions for Treatment of Tumor Metastasis” (priority 2009, published 2012).

Columns and labels:
[1] = general statement on statins; cited from earlier work
[2] = system: CTGF in M12 prostate cancer cells; test: Suppression of endogenous CTGF by statins in M12 prostate cancer cells; format: cell-based, human; settings: 1 μM, four days, FIG. 3A
Source text: The effect of statins on the TGF-β- and CTGF-induced EMT in prostate cancer cells was further tested. Several stains are available with different pharmacokinetics and biotransformation rates. […] The hydrophilic statins are absorbed preferentially by the liver, where they inhibit production of cholesterol. More lipophilic statins are readily distributed to sites beyond the liver, where they inhibit intracellular synthesis of cholesterol. These different pharmacokinetic properties of statins may greatly influence effectiveness against advanced prostate cancer in vivo.

[3] = system: CTGF in MDA 231 breast cancer cells; test: Suppression of endogenous CTGF by statins in MDA 231 breast cancer cells; format: cell-based, human; settings: 1 μM, four days, FIG. 3B
[4] = system: radiation-induced CTGF in M12 prostate cancer cells; test: Radiation-induced CTGF expression in M12 prostate cancer cells; format: cell-based, human; settings: 1 μM, four days, FIG. 9A
Source text: In an effort to determine the mechanism of radiation-induced adverse effects, such as radio-resistance and increased potential of metastasis in human cancer, M12 prostate cancer cells and BEAS-2B-CSC lung cancer cells were exposed to increasing amounts of radiation, ranging from 0 to 10 Grays (Gy). To detect protein expression for CTGF and CTGF-regulated protein fibronectin, M12 and BEAS-2B-CSC cells were harvested 3 days after irradiation, and culture media (CM) and cell lysates (CL) were separated by SDS-PAGE. Western immunoblotting was performed with antibodies specific for CTGF, fibronectin, and α-tubulin. […] As a control for protein loading, α-tubulin expression was also determined.
The ability of statins to inhibit radiation-induced CTGF expression was assessed in M12 prostate cancer cells and BEAS-2B-CSC lung cancer cells.

[5] = system: EMT markers in M12 prostate cancer cells; test: CTGF-induced (AdCTGF) EMT marker expression in M12 prostate cancer cells, RT-PCR and Western immunoblot; format: cell-based, human
Source text: In order to identify direct effect of CTGF on EMT induction in human cancer, an adenoviral expression vector was used. M12 (FIGS. 5 A-B) and M2182 (FIGS. 5 C-D) prostate cancer cells were infected with either an empty adenoviral constructs or an adenoviral vector expressing CTGF (AdCTGF) for either 18 hrs or 2 days to collect total RNAs for RT-PCR (FIGS. 5 A and C) and proteins for Western immunoblot analysis (FIGS. 5 B and D), respectively.
M12 (FIGS. 6 A-B) and M2182 (FIGS. 6 C-D) prostate cancer cells were infected with either an empty adenoviral construct (ADEV) or an adenoviral vector expressing CTGF (AdCTGF) for either 18 hrs or 2 days to collect total RNAs for RT-PCR (FIGS. 5 A and C) or proteins for Western immunoblot analysis (FIGS. 5 B and D), respectively.

[6] = system: CTGF and fibronectin in normal immortalized human lung fibroblasts; test: Basal and TGF-β1-induced CTGF and fibronectin expression in stromal fibroblasts; format: cell-based
[7] = stromal cells treated with TGF-β1 0 ng/ml to 25 ng/ml, 3 days, Western immunoblot, FIG. 4A

Row | Molecule | solubility (fat soluble or water soluble) [1] | suppression of CTGF [2] | suppression of CTGF [3] | suppression of radiation-induced CTGF expression [4] | other results
1 | CC(C)n1c(/C=C/[C@@H](O)C[C@@H](O)CC(=O)O)c(-c2ccc(F)cc2)c2ccccc21 (relative stereo) [fluvastatin, (3R,5S,6E)-rel-7-[3-(4-fluorophenyl)-1-(1-methylethyl)-1H-indol-2-yl]-3,5--dihydroxy-6-heptenoic acid] | more fat soluble |  |  |  | 
2 | CC[C@H](C)C(=O)O[C@H]1C[C@@H](C)C=C2C=C[C@H](C)[C@H](CC[C@@H]3C[C@@H](O)CC(=O)O3)[C@H]21 [lovastatin, 2(S)-2-methyl-butanoic acid (1S,3R,7S,8S,8aR)-1,2,3,7,8,8a-hexahydro-3,7-dimethyl-8-[2-[(2R,4R)-tetrahydro-4-hydroxy-6-oxo-2H-pyran-2-yl]ethyl]-1-na-phthalenyl ester] | more fat soluble | significant suppression | significant suppression | significant suppression | 
3 | CCC(C)C(=O)OC1CCC=C2C=C[C@H](C)[C@H](CC[C@@H]3CC(O)CC(=O)O3)[C@H]21 (stereo partly drawn) [mevastatin, ((1S,7S,8S,8aR)-8-{2-[(2R,4R)-4-hydroxy-6-oxotetrahydro-2H-pyran-2-yl]ethyl}-7-methyl-1,2,3,7,8,8a-hexahydronaphthalen-1-yl (2S)-2-methylbutanoate);] | more water soluble |  |  |  | 
4 | CC[C@H](C)C(=O)O[C@H]1C[C@H](O)C=C2C=C[C@H](C)[C@H](CC[C@@H](O)C[C@@H](O)CC(=O)O)[C@H]21 [pravastatin] | more water soluble | significant suppression | significant suppression | significant suppression | 
5 | CCC(C)(C)C(=O)O[C@H]1C[C@@H](C)C=C2C=C[C@H](C)[C@H](CC[C@@H]3C[C@@H](O)CC(=O)O3)[C@H]21 [simvastatin, 2,2-dimethyl-butanoic acid (1S,3R,7S,8S,8aR)-1,2,3,7,8,8a-hexahydro-3,7-dimethyl-8-[2-[(2R,4R)-tetrahydro-4-hydroxy-6-oxo-2H-pyran-2-yl]ethyl]-1-naphthalenyl ester] |  | significant suppression | significant suppression |  | epithelial marker E-cadherin expression ([5]; M12 cells, AdCTGF, 5 μM simvastatin, mRNA level and protein level, FIGS. 6 A-B): increase; adenoviral transduced IGFBP-rP2/CTGF expression ([5]; prostate cancer cells, simvastatin at concentrations, 2 μM, 4 μM, 5 μM): did not affect; basal CTGF expression ([6]; stromal fibroblasts, simvastatin 0.1 μM to 2.0 μM, 20 hours, semi-quantitative RT-PCR, FIG. 4B): suppression
6 | TGF-β1: transforming growth factor beta, potent inducer of CTGF, used to treat stromal fibroblasts |  |  |  |  | production of CTGF ([6]; TGF-β1 at 10 ng/ml, FIG. 4A): robust production; expression of CTGF [6, 7]: significantly increased; expression of fibronectin [6, 7]: significantly increased
